Results reported in patent US6514709B1, “High throughput screening by measurement of intracellular calcium levels” (Merck & Co., Inc., priority 2000, dated 2003).
One block for each molecule: values may come before it.

Legend:
[1] = target: T1, rat VR1 capsaicin receptor (Rattus norvegicus, UniProt O35433); assay: Fluo-3 fluorescence calcium response in VR1 cells (VIPR); type: cell-based
T1 construct: expressed in transfected cells
Experimental: (§1) Parental HEK293 cell lines expressing apoaequorin (293AEQ17 cells) were used to develop stable clonal cell lines expressing the rat VR1 capsaicin receptor (Caterina, M. J., Schumacher, M. A., Tominaga, M., Rosen, T. A., Levine, J. D., and Julius, D. (1997) The capsaicin receptor: a heat-activated ion channel in the pain pathway. Nature 389, 816-824). The VR1 293AEQ17 were maintained on growth media containing DMEM (GIBCOBRL, high glucose, with L-glutamine, with 110 mg/L sodium pyruvate, with pyridoxine HCl), 25 mM HEPES (GIBCOBRL, 1M stock), 0.5 mg/mL geneticin (GIBCOBRL, 50 mg/mL stock), 1 μg/mL puromycin (CLONTECH), and 10% fetal bovine serum (GEMINI BIO-PRODUCTS, heat inactivated) at 37° C., 10% CO^2.
Cells were grown to 80-95% confluence in tissue culture flasks (T-225, CORNING) and harvested by trypsinization (Trypsin/EDTA, GIBCOBRL). Cells were dispensed (about 1×10^5 cells/0.2 ml/well) into 96-well black clear-bottom BIOCOAT poly-D-lysine plates (BECTON DICKENSON, Bedford, Mass.) in growth media and incubated overnight at 37° C. in a humidified incubator at 10% CO^2. Cells were washed once with 200 μls of enriched PBS (Dulbecco's PBS (GIBCOBRL #14040-117), 10 mM HEPES, 2 g/L glucose; pH 7.2) and then incubated with 100 μl of 5 μM fluo-3-AM (MOLECULAR PROBES #F1241) with or without of 1,2-bis(o-aminophenoxy)ethane-N,N,N′,N′-tetraacetic acid tetra(acetoxymethyl) ester (BAPTA-AM, MOLECULAR PROBES #B 1205) in enriched PBS containing 0.02% pluronic F-127 (MOLECULAR PROBES #P-3000) for 30-70 minutes. Wells were washed two times with 100 μl of enriched-PBS, and then 100 μl enriched-PBS with or without antagonist was added for 15-30 minutes prior to assay on the AURORA fluorescence plate reader VIPR (ex. 480 nm, em. 535 nm). […] The calcium response was initiated by addition of 100 μl of the indicated concentration of capsaicin (SIGMA #M2028). The VIPR instrument was used to add agonist (in 100 μl enriched-PBS) after recording a 10 sec. baseline and the fluorescence was measured for up to 300 sec.
Changes in intracellular calcium were measured using the fluo-3 dye and detecting the kinetics of the response after addition of the VR1 agonist, capsaicin (0.5 uM) to cells expressing VR1 using a VIPR fluorescence plate reader (FIGS. 5 & 6A).

[2] = target: T1, rat VR1 capsaicin receptor; assay: Manual luminescence measurement in VR1 cells, read 2 minutes after agonist; type: cell-based
Experimental: Parental HEK293 cell lines expressing apoaequorin (293AEQ17 cells) were used to develop stable clonal cell lines expressing the rat VR1 capsaicin receptor.
Cells were grown to 80-95% confluence in tissue culture flasks (T-225, Corning) and harvested by trypsinization (Trypsin/EDTA, GIBCOBRL). Cells were dispensed (about 1×10^5 cells/0.2 ml/well) into 96-well white clear-bottom BIOCOAT poly-D-lysine plates (BECTON DICKENSON, Bedford, Mass.) in growth media and incubated overnight at 37° C. in a humidified incubator at 10% CO^2.

[3] = target: T2, human growth hormone secretagogue receptor type 1a (hGHSR1A) (Homo sapiens, UniProt Q92847); assay: Manual luminescence measurement in hGHSR1a cells, read 2 minutes after agonist; type: cell-based; conditions: 2 minutes after 100 nM ghrelin, with BAPTA
T2 construct: expressed in transfected cells
Experimental: Parental HEK293 cell lines expressing apoaequorin (293AEQ17 cells) were used to develop stable clonal cell lines expressing the human growth hormone secretagogue receptor type 1a (hGHSR1A).
Cells were charged with the aequorin substrate, coelenterazine h (MOLECULAR PROBES, #C-6780), by removing the growth media and incubating the cells with 75 μl of charge buffer (DMEM GIBCOBRL #12320-032; 0.1% FBS GEMINI BIO-PRODUCTS, Inc. #100-107;5 μM coelenterazine h; 30 μM reduced glutathione) for 2 hours at 37° C., 10% CO^2. […] The cells were then washed and loaded with 100 μl of enriched-PBS with or without the indicated antagonist. […] The WALLAC MICROBETA JET was used to measure 10 sec of luminescence after a delay of 2 minutes.
J. Med Chem. 43 4370-4376). […] After a lapse of two minutes, the plates were read using the WALLAC MICROBETA JET luminometer. […] These complex dose-response curves were observed both in the presence and absence of BAPTA. Yet overall, the addition of BAPTA increased the luminescence such that a 6-fold signal over background could be measured 2 minutes after stimulation with agonist.

[4] = target: T1, rat VR1 capsaicin receptor; assay: Aequorin luminescence in VR1 cells (WALLAC MICROBETA JET); type: cell-based; conditions: for time to peak response: 0.5 μM capsaicin
Experimental: as §1, with “receptor.” for “receptor (Caterina, M. J., Schumacher, M. A., Tominaga, M., Rosen, T. A., Levine, J. D., and Julius, D. (1997) The capsaicin receptor: a heat-activated ion channel in the pain pathway. Nature 389, 816-824).”
Cells were grown to 80-95% confluence in tissue culture flasks (T-225, Corning) and harvested by trypsinization (Trypsin/EDTA, GIBCOBRL). Cells were dispensed (about 1×10^5 cells/0.2 ml/well) into 96-well white clear-bottom BIOCOAT poly-D-lysine plates (BECTON DICKENSON, Bedford, Mass.) in growth media and incubated overnight at 37° C. in a humidified incubator at 10% CO^2. Cells were charged with the aequorin substrate, coelenterazine h (MOLECULAR PROBES, #C-6780), by removing the growth media and incubating the cells with 75 μl of charge buffer (DMEM GIBCOBRL #12320-032; 0.1% FBS GEMINI BIO-PRODUCTS, Inc. #100-107;5 μM coelenterazine h; 30 μM reduced glutathione) for 2 hours at 37° C., 10% CO^2. The charge buffer was then removed and the cells were washed twice with 100 μl of enriched-PBS (pH 7.2) and then incubated with 100 μl of enriched-PBS supplemented with 0-30 μM BAPTA-AM for 30-120 min at 37° C., 10% CO^2. The cells were then washed and loaded with […] of enriched-PBS with or without the indicated antagonist. The calcium response was initiated by addition of 100 μl of the indicated concentration of capsaicin (SIGMA #M2028) to the wells by a WALLAC MICROBETA JET. In order to obtain more consistent kinetics, the Jet was set to simultaneously read only six wells per determination.
For these experiments, the kinetics of the flash luminescence were followed using a WALLAC MICROBETA JET luminometer that injects reagent and records light emission from six wells of a 96-well plate simultaneously.

[5] = target: T2, human growth hormone secretagogue receptor type 1a (hGHSR1A); assay: Fluo-4 fluorescence calcium response in hGHSR1a cells (VIPR); type: cell-based; conditions: 30 μM BAPTA-AM, 100 nM ghrelin
Experimental: Cells were grown to 80-95% confluence in tissue culture flasks (T-225, Corning) and harvested by trypsinization (Trypsin/EDTA, GIBCOBRL). Cells were dispensed (about 1×10^5 cells/0.2 ml/well) into 96-well black clear-bottom BIOCOAT poly-D-lysine plates (BECTON DICKENSON, Bedford, Mass.) in growth media and incubated overnight at 37° C. in a humidified incubator at 10% CO^2. […] Wells were washed two times with 100 μl of enriched-PBS, and then 100 μl enriched-PBS with or without antagonist was added for 15-30 minutes prior to assay on the AURORA fluorescence plate reader VIPR (ex. 480 nm, em. 535 nm). […] The VIPR instrument was used to add agonist (in 100 μl enriched-PBS) after recording a 10 sec. baseline and the fluorescence was measured for up to 300 sec.

[6] = target: T3, endogenous muscarinic receptor (Homo sapiens, UniProt P20309); assay: Fluo-4 fluorescence calcium response in HEK-AEQ17 cells (VIPR); type: cell-based; conditions: 3 μM BAPTA-AM, muscimol (10 μM)
T3 construct: stimulated an endogenous muscarinic receptor; endogenous in cells; host or cells: parental HEK293 apoaequorin cells (293AEQ17 / HEK-AEQ17)
Experimental: The VIPR instrument was used to add agonist (in 100 μl enriched-PBS) after recording a 10 sec. baseline and the fluorescence was measured for up to 300 sec.
Muscimol stimulated an endogenous muscarinic receptor (Moriya, H., Takagi, Y., Nakanishi, T., Hayashi, M., Tani, T., and Hirotsu, I. (1999) Affinity profiles of various muscarinic antagonists for cloned human muscarinic acetylcholine receptor (MACHR) subtypes and MACHRS in rat heart and submandibular gland. Life Sciences 25 2351-2358; Caulfield, M. P. (1993) Muscarinic receptors-characterization, coupling and function. Pharmac. Ther. 58, 319-379)in HEK-AEQ17 cells which gave a robust fluorescence signal when measured with fluo-4 using the VIPR. The kinetics of this calcium transient was different from that measured for either the VR1 or hGHSR1a calcium transient. Activation with muscimol (10 μM) caused a fast transient response, followed by a slower response (FIG. 9A). The fast transient response was very sensitive to BAPTA, and was eliminated by low levels of the chelator (3 μM BAPTA-AM), but a fluorescence signal could be detected under these conditions that was stable for at least 3 minutes. At a higher BAPTA concentration (10 μM BAPTA-AM), the increase in fluorescence was very slow and had not yet stabilized even after 3 minutes.

[7] = target: T2, human growth hormone secretagogue receptor type 1a (hGHSR1A); assay: Aequorin luminescence in hGHSR1A cells (WALLAC MICROBETA JET); type: cell-based; conditions: 30 μM BAPTA-AM, 100 nM ghrelin
Experimental: Cells were charged with the aequorin substrate, coelenterazine h (MOLECULAR PROBES, #C-6780), by removing the growth media and incubating the cells with 75 μl of charge buffer (DMEM GIBCOBRL#12320-032; 0.1% FBS GEMINI BIO-PRODUCTS, Inc. #100-107; 5 μM coelenterazine h; 30 μM reduced glutathione) for 2 hours at 37° C., 10% CO^2. […] The cells were then washed and loaded with 100 μl of enriched-PBS with or without the indicated antagonist. […] In order to obtain more consistent kinetics, the Jet was set to simultaneously read only six wells per determination.

[8] = tested on: ligand-gated calcium channel; assay: Model aequorin-based functional cellular assay for a ligand-gated calcium channel; type: cell-based; conditions: BAPTA-AM 0-30 uM, after injection of agonist
Experimental: For this assay, HEK293 cells co-expressing the receptor of interest and apoaequorin were grown to confluence in BIOCOAT poly-D-lysine opaque white 96-well microtiter plates (BECTON DICKINSON). The cells were maintained on a standard growth media. The cells were charged with growth media supplemented with 5 uM of coelenterazine h (MOLECULAR PROBES, Eugene, Oreg.) for 2 hr at 37° C. in a humidified incubator at 5% CO2. The charged cells were then washed and loaded with assay buffer.
Addition of agonist caused the rapid and transient luminescent signal that was complete within 10-15 seconds (FIG. 1). The kinetics of the flash luminescent signal was followed by using a WALLAC MICROBETA JET instrument where agonist was injected directly into the wells containing the charged cells. As a buffering reagent the cell permeable acetoxymethyl ester BAPTA-AM was used. BAPTA is a specific calcium chelator that rapidly binds and releases calcium. […] A schematic representation of this assay appears in FIG. 2.
The addition of increasing levels of BAPTA-AM (0-30 uM) caused an initial delay in the aequorin-based luminescence signal upon injection of agonist and extended the signal far greater than 30 seconds (FIG. 1). The addition of a known receptor antagonist was able to completely block the signal (FIG. 3).

[9] = tested on: ionomycin-induced calcium influx; conditions: presence of BAPTA-AM; cited from earlier work
[10] = 0.5 uM capsaicin, absence of BAPTA

T2 sequence (Q92847 whole entry): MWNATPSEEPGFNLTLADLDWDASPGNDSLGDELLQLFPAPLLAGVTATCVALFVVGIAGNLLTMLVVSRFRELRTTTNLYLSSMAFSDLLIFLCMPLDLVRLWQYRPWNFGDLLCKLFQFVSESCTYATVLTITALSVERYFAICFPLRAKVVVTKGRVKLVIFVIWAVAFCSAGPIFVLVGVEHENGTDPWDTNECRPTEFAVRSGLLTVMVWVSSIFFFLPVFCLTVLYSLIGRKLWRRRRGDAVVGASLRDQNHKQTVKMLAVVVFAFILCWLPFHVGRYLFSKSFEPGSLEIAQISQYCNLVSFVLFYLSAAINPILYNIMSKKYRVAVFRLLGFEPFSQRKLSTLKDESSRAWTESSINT
T1 sequence (O35433 whole entry): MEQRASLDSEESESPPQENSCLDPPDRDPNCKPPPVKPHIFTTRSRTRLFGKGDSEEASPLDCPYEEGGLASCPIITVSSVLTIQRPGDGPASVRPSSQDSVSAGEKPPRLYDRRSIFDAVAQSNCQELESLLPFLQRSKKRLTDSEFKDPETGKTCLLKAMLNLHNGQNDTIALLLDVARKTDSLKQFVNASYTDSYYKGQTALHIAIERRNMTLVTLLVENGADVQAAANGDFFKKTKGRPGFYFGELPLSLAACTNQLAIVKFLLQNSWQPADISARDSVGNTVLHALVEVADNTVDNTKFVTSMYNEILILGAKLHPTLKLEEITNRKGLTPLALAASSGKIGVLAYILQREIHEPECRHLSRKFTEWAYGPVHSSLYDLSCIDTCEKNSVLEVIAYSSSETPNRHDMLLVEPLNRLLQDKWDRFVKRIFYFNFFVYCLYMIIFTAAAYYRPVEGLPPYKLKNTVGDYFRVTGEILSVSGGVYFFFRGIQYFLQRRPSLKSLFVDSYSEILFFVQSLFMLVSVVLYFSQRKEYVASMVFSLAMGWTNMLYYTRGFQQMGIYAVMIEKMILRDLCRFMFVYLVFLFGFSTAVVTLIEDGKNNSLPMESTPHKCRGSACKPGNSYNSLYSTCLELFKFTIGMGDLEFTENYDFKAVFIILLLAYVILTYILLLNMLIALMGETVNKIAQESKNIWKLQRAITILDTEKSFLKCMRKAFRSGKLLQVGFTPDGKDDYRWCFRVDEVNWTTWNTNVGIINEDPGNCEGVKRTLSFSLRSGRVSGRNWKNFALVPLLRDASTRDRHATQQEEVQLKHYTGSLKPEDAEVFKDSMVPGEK
T3 sequence (P20309 whole entry): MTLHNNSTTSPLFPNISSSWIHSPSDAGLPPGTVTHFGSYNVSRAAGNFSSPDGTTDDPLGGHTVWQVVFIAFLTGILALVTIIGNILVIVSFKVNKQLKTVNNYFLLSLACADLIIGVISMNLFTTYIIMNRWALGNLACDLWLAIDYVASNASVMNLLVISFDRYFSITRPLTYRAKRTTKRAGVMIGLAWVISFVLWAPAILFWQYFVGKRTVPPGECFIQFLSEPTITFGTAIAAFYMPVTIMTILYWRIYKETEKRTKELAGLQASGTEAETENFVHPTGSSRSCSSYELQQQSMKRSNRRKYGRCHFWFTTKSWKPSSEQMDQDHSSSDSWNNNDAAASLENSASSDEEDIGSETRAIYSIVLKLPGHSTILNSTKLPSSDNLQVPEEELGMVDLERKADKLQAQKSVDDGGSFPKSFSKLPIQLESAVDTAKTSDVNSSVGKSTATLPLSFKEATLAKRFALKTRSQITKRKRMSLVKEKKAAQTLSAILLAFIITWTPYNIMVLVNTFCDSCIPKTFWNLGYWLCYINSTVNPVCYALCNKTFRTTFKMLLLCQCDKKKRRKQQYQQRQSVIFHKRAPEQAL

block of capsaicin response ([1]; 20 μM capsazepine, 0.5 uM capsaicin): completely blocked
block of luminescence signal ([2]; higher concentrations of antagonist, 0.5 uM capsaicin, with and without BAPTA): completely blocked
SMILES: Oc1cc2c(cc1O)CN(C(=S)NCCc1ccc(Cl)cc1)CCC2 [capsazepine]

effect on peak signal ([1]; 3 μM BAPTA, 0.1 μM capsaicin): decreased the peak signal
signal over background ([2]; 2 minutes after 0.5 uM capsaicin, with BAPTA): 4 fold
signal over background [3]: 6 fold
SMILES: O=C(O)CN(CC(=O)O)c1ccccc1OCCOc1ccccc1N(CC(=O)O)CC(=O)O [BAPTA]

time to decay to 50% [1, 10]: about 150 sec
time to peak fluorescence response [1, 10]: about 20 sec
time for luminescence signal to be largely complete ([4]; 50 nM capsaicin, no BAPTA): ≤ 30 s
time to peak luminescence ([4]; 50 nM capsaicin, no BAPTA): about 10 sec
time to peak response ([4]; no BAPTA): about 5 sec
SMILES: COc1cc(CNC(=O)CCCC/C=C/C(C)C)ccc1O [capsaicin]

SMILES: CC(=O)OCOC(=O)CN(CC(=O)OCOC(C)=O)c1ccccc1OCCOc1ccccc1N(CC(=O)OCOC(C)=O)CC(=O)OCOC(C)=O [BAPTA-AM, 1,2-bis(o-aminophenoxy)ethane-N,N,N′,N′-tetraacetic acid tetra(acetoxymethyl)ester]
time to peak fluorescence signal ([1]; 3 μM BAPTA-AM for 30 minutes, 0.5 uM capsaicin): about 40 sec
fluo-3 signal decay time ([1]; 3 μM BAPTA-AM, 0.5 uM capsaicin): about 150 s
peak response time ([1]; 10 and 30 μM BAPTA-AM, 0.5 uM capsaicin): up to 100 sec
duration of stable fluorescent signal [5]: up to 5 minutes
time to peak fluorescence response [5]: 150 s
duration of stable fluorescence signal [6]: at least 3 minutes
effect on fast transient response [6]: eliminated
total signal at a given agonist concentration ([4]; 0 μM to 30 μM BAPTA-AM): did not significantly vary
time to peak response ([4]; 30 μM BAPTA-AM): 10 s
duration of extended luminescence signal ([4]; BAPTA-AM 0-30 μM, 50 nM capsaicin, maximum time recorded): up to 3 minutes
time of maximum luminescence response ([4]; increasing BAPTA-AM 0-30 μM, 50 nM capsaicin): 30 s
luminescence signal relative to the response in the absence of BAPTA [7]: about 5%
time to reach the maximum light emission [7]: 75 s
duration of extended luminescence signal [8]: greater than 30 seconds
slowing of calcium transients [9]: up to 8 fold
